Values quoted from earlier work in patent US20110123555A1, “PREPARATION AND UTILITY OF CCR5 INHIBITORS” (AUSPEX PHARMACEUTICALS, INC., priority 2006, published 2011).

Tested on: 200 clinically-derived pseudoviruses
Settings: half of which are derived from viruses resistant to existing drug classes

Cc1nnc(C(C)C)n1C1CC2CCC(C1)N2CCC(NC(=O)C1CCC(F)(F)CC1)c1ccccc1 (stereo not shown) [Maraviroc]
active in vitro against clinically-derived pseudoviruses: active
